Experimental data reported in patent US20230122932A1, “NEW SEX PHEROMONE COMPONENTS FOR THE FALL ARMYWORM, SPODOPTERA FRUGIPERDA” (North Carolina State University, priority 2020, published 2023).
Entries after “also recorded” stand apart in the source; their conditions may differ.

How the values were obtained:
[1] = test system: male FAW; experiment: Field test with commercial lures plus nonanal, Hartstack traps in sorghum crop; type: in vivo, Spodoptera frugiperda
Procedure: Field test with commercial formulation: The effect of adding nonanal to commercial formulations was tested in a sorghum crop for five days. Lures were purchased from two commercial suppliers, referred to herein as “Commercial Supplier A” (L105A from Seemly Biologicals Inc., Billings, Mont., United States of America) and “Commercial Supplier B” (FAW 3143 from Trécé, Adair, Okla., United States of America). These lures were formulated by the respective companies in rubber septa. Nonanal was formulated in the same way as described above and a straightened metal paper clip held together both the nonanal-loaded vial and the commercial lure. This set was installed inside a Hartstack trap and traps were positioned in the same manner described above. The attraction of male FAW to the following treatments was tested: • Commercial Supplier B lure combined with clean paraffin oil in vial dispenser (no nonanal). • Commercial. Supplier B lure combined with 20 μg of nonanal in vial dispenser. • Commercial Supplier A lure combined with clean paraffin oil in vial dispenser (no nonanal). • Commercial Supplier A lure combined with 20 μg of nonanal in vial dispenser.
A second study was conducted in the same crop over a second five-day period, aimed to investigate different doses of nominal in combination with Commercial Supplier A lures. Using the same procedure described above, the attraction of male FAW was tested to the following treatments: • Commercial. Supplier A lure combined with clean paraffin oil in vial dispenser (no nonanal). • Commercial Supplier A lure combined with 10 μg of nonanal in vial dispenser. • Commercial Supplier A lure combined with 20 μg of nonanal in vial dispenser. • Commercial Supplier A lure combined with 40 μg of nonanal in vial dispenser. • Commercial Supplier A lure combined with 80 μg of nonanal in vial dispenser.
(§1) Statistical analysis: All statistical analyses were performed in R (version 3.5.1). Behavioral responses of male FAW to formulations in the olfactometer were analyzed by binomial generalized linear model. Numbers of male FAW catches in the same day were combined per treatment and analyzed by Poisson generalized linear model (GLM). Treatments that had no catches were not included in the analyses.

[2] = test system: antenna of FAW males; experiment: GC-EAD electrophysiology of female pheromone gland extract on male antenna; set-up: species or system Spodoptera frugiperda; conditions: 1 μl female pheromone gland extract
Procedure: Electrophysiology: The sex pheromone gland of ten 3-4-day old FAW females was dissected and placed in a glass insert containing 30 μl hexane (SupraSolv®; MilliporeSigma, Burlington, Mass., United States of America). After 10 min, the hexane extract was transferred to a second insert and concentrated down to 10 μl under a gentle flow of nitrogen. A gas chromatograph coupled to an electroantennogram detector (GC-EAD) was used to identify biologically active compounds that are perceived by the antenna of FAW males, since the antenna is the main olfactory organ of insects. The GC separates chemical mixes into individual compounds and directs them to the insect antenna, which is connected to an amplifier, the EAD. In parallel to the GC, the electrophysiological response of the antenna is recorded to identify the active compounds. An aliquot of 1 μl of the pheromone gland extract was injected in the GC-EAD where a male FAW antenna was mounted. Clean hexane that was handled in the same manner without glands was used as control.

[3] = test system: male FAW; experiment: Field assays, Hartstack traps in cotton field, 2-component pheromone mix with nonanal; type: in vivo, Spodoptera frugiperda
Procedure: Field Assays: Formulations were tested under field conditions. Z9-14:OAc and Z7-12:OAc were diluted in hexane and 100 μL of the solution containing 100 μg and 0.58 μg of the respective compounds was loaded to a rubber septum (11 mm; Wheaton, DWK Life Sciences, Millville, N.J., United States of America). The septum was left inside a fume hood for 15 hr for the solvent to evaporate and then tested in field assays. Nonanal was diluted in paraffin oil and 100 μL of the solution was transferred to a vial dispenser. The solution contained either 0.1 μg or 1 μg, which corresponded to 0.1% and 1% of the amount of Z9-14:OAc. This dispenser constituted a 2 ml borosilicate vial covered with aluminum foil and contained 50 mg of deactivated glass wool. The vial was loaded with a nonanal solution and capped. […] A straightened metal paper clip pierced through the small cup of a pheromone-loaded rubber septum and was tied around the neck of a nonanal-loaded vial. This set was held by a steel alligator clip installed inside a Hartstack trap. We tested the attraction of male FAW to the following treatments: • Control: clean hexane loaded into a rubber septum and clean paraffin oil in a, vial dispenser • Pheromone mix: 100 μj of Z9-14:OAc and 0.58 μg of Z7-12:OAc in rubber septum and clean paraffin oil in vial dispenser • Pheromone 4-0.1% Nonanal: Pheromone mix in rubber septum and 0.1 μg of nonanal in vial dispenser • Pheromone+1% Nonanal: Pheromone mix in rubber septum and 1 μg of nonanal in vial dispenser
The Hartstack trap consisted of a conical body made of metal mesh with a removal top (H: 15 cm, ø=14 cm) in which males were trapped. Traps stood over the canopy of crops on rebars (L: 1.5 m) that were fixed to the ground. Traps were set for one week in a cotton field along the crop row, 15 m apart. Each experimental block consisted of 4 traps 15 m from each other. The next block was set 15 m from the first block and parallel to it. Each treatment was replicated once within a block and assigned randomly to trap positions. The number of trapped male FAW moths and other species were counted daily and traps were rotated.
A second study repeated the same procedure described above but increased the amount of Z9-14:OAc and Z7-12:OAc in the mix to 1000 μg and 5.8 μg, respectively, and nonanal to 10, 20 and 40 μg. The attraction of male FAW was tested to the following treatments: • Control: clean hexane loaded into a rubber septum and clean paraffin oil loaded into a vial dispenser • Pheromone mix: 1000 μg of Z9-14:OAc and 5.8 μg of Z7-12:OAc in rubber septum and clean paraffin oil in vial dispenser (no nonanal). • Pheromone 4-1% Nonanal: Pheromone mix in rubber septum and 10 μg of nonanal in vial dispenser. • Pheromone+2% Nonanal: Pheromone mix in rubber septum and 20 μg of nonanal in vial dispenser. • Pheromone+4% Nonanal: Pheromone mix in rubber septum and 40 μg of nonanal in vial dispenser.
as §1

[4] = test system: FAW males; experiment: No-choice linear olfactometer behavioral assay; type: in vivo, Spodoptera frugiperda
Procedure: Behavioral Assay: A no-choice linear olfactometer assay was used to test the behavior of FAW males to different formulations. The olfactometer consists of a linear Plexiglas® tube (n=6 cm i.d., length=145 cm) that was connected to an air pump that generated an internal airflow speed of 0.1 m/s. A short Plexiglas® chamber filled with activated charcoal was connected to the opposite end of the olfactometer to filter the inward air. […] An aliquot of […] was added to a piece of filter paper and solvent was left to evaporate for 30 min at room temperature. Filter papers were introduced to the olfactometer through an opening (0=2 cm) on the top of the olfactometer, 4 cm away from the charcoal filter. Filter papers were tested only once. Moths were tested for 5 minutes and the sequence of their behavioral response was recorded as: activation (wing fanning and start moving upwind), reaching the half-way point of the olfactometer (HW), close approach to the odor source (CA), and source contact (contact). The experiment was conducted 4-7 hours into the scotophase.
The tested formulations were: […]
as §1

[5] = nonanal at all doses (0.05, 0.1, 1% relative to 100 ng Z9-14:OAc) added to 2-component formulation, N=15

## CCCCCCCCC=O [nonanal]
[1]; 20 μg (1%) nonanal added to Commercial Supplier A lure, sorghum field
  increase of trap catches compared to commercial lure alone: 46.5%
[1]; 20 μg (1%) nonanal added to Commercial Supplier B lure, sorghum field
  increase of trap catches compared to commercial lure alone: 53%
[1]; 20 μg nonanal added to Commercial Supplier A and B lures, sorghum field, four traps per treatment
  number of males caught per day: significantly increased the number of males caught per day compared to the commercial lures alone
[1]; second study (FIG. 6): nonanal added to Commercial Supplier A (Scentry) lure, sorghum field, five days
  number of males caught per day: significantly increased the number of males caught compared to the commercial lures alone
[1]; second study: 80 μg (4%) nonanal added to Commercial Supplier A lure, sorghum field
  number of males caught compared to the commercial lure alone: 52.4%
[1]; second study: 1% nonanal added to Commercial Supplier A lure
  trap catches: only slightly increased the trap catches
[1]; second study: 2% nonanal added to Commercial Supplier A lure
  trap catches: only slightly increased the trap catches
[1]; second study: 8% nonanal added to Commercial Supplier A lure
  trap catch: decreased trap catch
[2]
  antennal (EAD) response: active; also recorded: robust antennal responses
[3]; 0.1% nonanal (0.1 μg) added to 100 μg Z9-14:OAc + 0.58 μg Z7-12:OAc, cotton field
  trap catch: intermediate trap catch between the pheromone mix alone and with the addition of 1% nonanal
[3]; 1% nonanal (1 μg) added to 100 μg Z9-14:OAc + 0.58 μg Z7-12:OAc, cotton field
  improvement of male catches compared to the pheromone mix alone: 155%
[3]; 1% nonanal added to 100 μg Z9-14:OAc + 0.58 μg Z7-12:OAc, cotton field, three traps, six days
  number of males caught per day: highest number of males caught
[3]; field assays
  nonanal percentage (compared to Z9-14:OAc) that rendered the highest number of trap catches in the field: 1 % (weight/weight)
[3]; nonanal 0.1 and 1 μg added to 100 μg Z9-14:OAc + 0.58 μg Z7-12:OAc, cotton field
  numbers of male FAW in traps: significantly increased the numbers of male FAW in traps
[3]; second assay: 1% nonanal added to 1 mg Z9-14:OAc + 5 μg Z7-12:OAc, cotton field
  male catches per day, more than the pheromone alone: 100%
[3]; second assay: 1% nonanal added to pheromone mix (1 mg Z9-14:OAc), cotton field, nine days
  number of males caught per day: highest number of male catches per day; also recorded: highest number of males caught
[3]; second assay: 2% nonanal added to pheromone mix (1 mg Z9-14:OAc), cotton field
  number of males caught: decreased the number of males caught and was not significantly different from the pheromone formulation alone
[3]; second assay: 4% nonanal added to pheromone mix (1 mg Z9-14:OAc), cotton field
  number of males caught: decreased the number of males caught and was not significantly different from the pheromone formulation alone
[3]; second assay: nonanal alone (1% and 4%), no pheromone mix, cotton field
  trap catch: did not yield any catch; also recorded: did not catch any males
[4]; 1% nonanal (1 ng) added to 2-component formulation (Formulation #4), N=15
  males that reached the pheromone source: 100%
[4]; nonanal 0.05, 0.1, 1% added to 2-component formulation, olfactometer
  effect on attraction / pheromone-triggered response of males: enhanced the attraction of male FAW
[4]; [5]
  males activated: 100%
  males that reached the pheromone source: more than 66%
